Measured values reported in US6037463A, “Enzymatic RNA molecules that cleave mutant N-RAS” (priority 1996, dated 2000).

How the values were obtained:
[1] = system: synthetic substrate, mutant N-ras mRNA (codon 13); assay: Melting curves (Tm) of ribozyme-substrate complexes, mutant; type: binding; details: ribozyme-substrate complex
Description: (§1) In one investigation, short synthetic oligoribonucleotides of 15 nucleotides chain length served as substrates. Cleavage kinetics of all ribozymes were carried out under Michaelis-Menten conditions. […] Ribozymes RE990 or RE1035 against the wild type mRNA as well as their substrate complexes on the other hand reveal Tm values of approximately 52° C.
(§2) UV temperature curves were measured at 260 nm using a Varian Cary-1 UV/VIS-spectrophotometer. The target was prepared by dissolving the ribozyme in a buffer containing 50 mM Tris-Cl (pH 7.5) and 10 mM MgCl2. The sample was transferred in a cuvette with a 10 mm path length. The ribozyme was denatured at 80° C. for 5 min, and subsequently the substrate RNA and substrate DNA were added and the whole mixture was renatured at 1° C./min. Melting curves at 260 nm were performed by heating the solution in the cuvette at 0.75° C./min and acquiring absorbance data every 0.5° C. step until 80° C. was reached. The Tm value and thermodynamic parameters of transition were obtained by fitting data of a two transition state model with the GraFit version 2.0 from Sigma Chemicals Co. software using the method of Marky and Breslauer, Biopolymers 26:1601 (1987).

[2] = system: in vitro transcribed mutant N-ras mRNA (codon 13); assay: Kinetics with in vitro transcribed RNA (single-turnover), mutant; type: biochemical
Description: (§3) In a further investigation, RNA containing the mutant or wild type N-ras sequence from transcription initiation site to termination site was synthesized by in vitro transcription. In order to achieve efficient mRNA cleavage, the target sequence of the substrate (NUX-triplet, N=A,G,C,U; X=C,A,U) is not allowed to be double-stranded or part of a stable hairpin. The in vitro transcribed RNA served as substrate for five ribozymes mentioned above. The catalytic efficiency was examined under "single-turnover" conditions to detect the splice products.
(§4) For in vitro transcription, pMS5-NRAS, pMS5A-NRAS and pMS5B-NRAS were linearized by EcoRI digestion, phenol-extracted and ethanol-precipitated. Transcription was carried out in a 100 μl mixture containing 50 ng/μl linearized plasmid DNA, 10 mM DTT, 40 mM Tris-Cl (pH 7.5), 50 mM NaCl, 8 mM MgCl2, 2 mM spermidine, 500 μM rNTP's, 0.8 U/μl RNAse-lnhibitor, 2 μCi/μl [α-^32 P]-ATP and 2.5 U/μl T7 RNA Polymerase. A one-hour incubation at 37° C. was followed by the addition of 25 Units of DNAsel, and the mixture was incubated for an additional 30 min at 37° C. After subsequent phenol extraction, the aqueous phase was transferred into a CENTRICON-100 tube and centrifuged at 3,400 U/min for 30 min. The RNA-solution was checked for homogeneity by UV absorption and 6% analytical PAGE (8 M urea). The solution was stored frozen at -20° C.
(§5) The cleavage efficiency under "single-turnover" conditions was determined in a volume of 10 μl using 20-1200 nM ribozyme, 50 mM Tris-Cl (pH 7.5) and 10 mM MgCl2. The reaction was initiated by addition of RNA substrate to a final concentration of 10 nM substrate over 1 h at 37° C. The reaction was stopped by mixing 8 μl of stop solution to each reaction. The reaction was analyzed on 6% denaturing polyacrylamide gels and scanned on a Molecular Dynamics Phosphor Imager. The single turnover kcat /Km values were determined as described by Heidenreich et al., J. Biol. Chem. 267:1904 (1992).

[3] = system: in vitro transcribed wild type N-ras mRNA; assay: Kinetics with in vitro transcribed RNA (single-turnover), wild type; type: biochemical; details: for cleavage of wild type N-ras mRNA: ribozymes directed against mutant mRNA
Description: as §3, §4, §5

[4] = system: N-ras transformed NIH3T3 cells (mutation in codon 13, clones 2 and 4); assay: Colony-forming soft agar assay, retrovirally mediated ribozyme; type: cell-based; details: beyond the effect of the retroviral vector alone
Description: The cells of the constitutively N-ras expressing clones 2 and 4 (mutation in codon 13) were subcultured in soft agar using the colony-forming agar assay of Cowley et al., Cell 77:841 (1994). The colony-forming agar assay is a semisolid method in which cells are suspended in a 0.3% agar upper layer and plated out over a 0.5% agar lower layer in Petri dishes. The lower layer was prepared by heating a 2.5% solution of agar in deionized water. After cooling the agar to 45° C. in a water bath, an agar mix of 0.5% agar was prepared by combining 25 ml of 1×DMEM medium, 10 ml of 2.5% agar, 10 ml of 2×DMEM medium, and 5 ml of fetal calf serum. One milliliter samples of the agar mix were pipetted into 35 mm Petri culture dishes and stored at 4° C. for 30 minutes.
The upper layer was prepared by adding 0.2 ml of agar mix to 1 ml of about 5×10^4 cells/ml suspension, and adding DMEM medium to a total volume of 1.7 ml. One milliliter samples were pipette onto bottom agar layers and incubated for 14-21 days at 37° C. […]
The soft agar cultures were incubated for […] at 37° C. and 5% CO2. The reduction in transformed N-ras NIH3T3 cells was analyzed by counting cell clusters under a microscope. The soft agar preparations were set up in quadruplicate for each construct and the mean values were calculated, as presented in Table VII.

[5] = system: synthetic oligoribonucleotide substrate of 15 nucleotides, mutant N-ras mRNA (codon 13); assay: Kinetics with synthetic substrates (multiple turnover), ribozymes against mutant N-ras; type: biochemical; details: Table IA, Michaelis-Menten conditions; for kcat: 37° C., 10 mM MgCl2
Description: as §1
(§6) Kinetic constants Km and kcat were determined from Eadie-Hofstee plots carried out with 5'-^32 P-labeled substrate. The RNA substrate was labeled by reaction with T4 polynucleotide kinase and [γ-^32P]-ATP. 5'-end labeled substrate was purified from [γ-^32 P]-ATP with CENTRICON-3 tubes. Ribozyme and substrate were heated separately for 1 min at 75° C. in 50 mM Tris-Cl (pH 7.5). After cooling to 37° C. for 5 min, 100 mM MgCl2 were added to a final concentration of 10 mM, and the solution was incubated for an additional 5 min at 37° C. Multiple turnover reactions were carried out in a volume of 100 μl with concentrations of substrate between 20-500 nM and ribozyme concentrations from 2 to 5 nM in 50 mM Tris-Cl (pH 7.5) and 10 mM MgCl2 at 37° C. Reactions were initiated by addition of ribozyme. The reaction was stopped by mixing the ribozymes with an equal volume of stop solution (8 M urea, 25 mM EDTA). The cleavage reactions were analyzed on 20% denaturing polyacrylamide gels (8 M urea) and scanned on a Molecular Dynamic Phosphorimaging system.

[6] = system: synthetic oligoribonucleotide substrate of 15 nucleotides, wild-type N-ras mRNA (codon 64, 89 or 103); assay: Kinetics with synthetic substrates (multiple turnover), ribozymes against wild-type N-ras; type: biochemical; details: for Km / kcat: Table IA, Michaelis-Menten conditions; for kcat: 37° C., 10 mM MgCl2
Description: as §1, §6

[7] = system: synthetic substrate, wild type N-ras mRNA; assay: Melting curves (Tm) of ribozyme-substrate complexes, wild type; type: binding; details: ribozyme-substrate complex
Description: as §1, §2

[8] = Table IIA, single-turnover, transcribed N-ras mRNA
[9] = Table III, modified ribozymes, transcribed N-ras mRNA
[10] = Table IIB, single-turnover, transcribed RNA

Row | Substance | Tm [1] | Km [2, 8] [nM] | kcat [2, 8] | Km [2, 9] [nM] | kcat [2, 9] | cleavage of wild type N-ras mRNA [3] | Km [5] [nM] | kcat [5] [s⁻¹] | Km [3, 8] [nM] | kcat [3, 8] | Km [6] [nM] | kcat [6] [s⁻¹] | Tm [7] | further results
1 | 5'-CCAACACCUGAUGAGCGUUAGCGAAACCUGCU-3' (chemistry not given here) | approximately 48 °C | 71 | 266 10^6 × s^-1 | 71 | 266 10^6 × s^-1 | do not cleave | 82 | 0.015 | – | – | – | – | – | reversion of the malignant phenotype [4]: about 18%
2 | RE917: ribozyme against codon 64 of the wild-type N-ras mRNA, SEQ ID NO:14 (GGCACUGCUGAUGAGCGUUAGCUAAACUCUUC; chemistry not given here) | – | – | – | – | – | – | – | – | 63 | 59 10^6 × s^-1 | 78 | 0.013 | – | Km [3, 10]: 63 nM; kreact [3, 10]: 59 10^6 s^-1; Km [3, 9]: 63 nM; kcat [3, 9]: 59 10^6 × s^-1
3 | RE1035: ribozyme against codon 103 of the wild-type N-ras mRNA, SEQ ID NO:16 (AGUCUUUCUGAUGAGCGUUAGCGAAACUCGCU; chemistry not given here) | – | – | – | – | – | – | – | – | 425 | 44 10^6 × s^-1 | 277 | 0.013 | approximately 52 °C | –
4 | RE990: ribozyme against codon 89 of the wild-type N-ras mRNA, SEQ ID NO:15 (CGCAAAUCUGAUGAGCGUUAGCGAAACUUGCU; chemistry not given here) | – | – | – | – | – | – | – | – | 234 | 72 10^6 × s^-1 | 404 | 0.004 | approximately 52 °C | kcat /Km [6]: much less catalytic efficiency
5 | 5'-UCCCAACCUGAUGAGCGUUAGCGAAACACCUG-3' (chemistry not given here) | approximately 48 °C | 113 | 137 10^6 × s^-1 | 113 | 137 10^6 × s^-1 | do not cleave | 65 | 0.012 | – | – | – | – | – | Km [2, 10]: 113 nM; kreact [2, 10]: 137 10^6 s^-1
